Test results: paper PMC6877910, “Astrocyte-Targeted Transporter-Utilizing Derivatives of Ferulic Acid Can Have Multifunctional Effects Ameliorating Inflammation and Oxidative Stress in the Brain” (Oxidative Medicine and Cellular Longevity, 2019)

How the values were obtained:
[1] = target: T1, LAT1 (Mus musculus, UniProt Q9Z127); test: Transporter-mediated cellular uptake into primary astrocytes, primary mechanism (Eadie-Hofstee); type: in vitro ADME; details: Eadie-Hofstee analysis, mean ± SD, n = 3
T1 construct: mouse primary astrocytes, from which we have recently characterized LAT1 expression and function; endogenous in cells; host or cells: mouse primary astrocytes (cortex and hippocampi of 2-day-old wild-type and APP/PS1 mice)
Experimental: (§1) For the cell uptake experiments, the astrocytes were seeded on 24-well plates with a density of 10 × 10^4 cells/well three days before the experiments as described earlier. Cellular uptake of derivatives 1-3 of FA was studied by incubating the cells at 37°C for 30 min (uptake was linear with all compounds up to 30 min) with compounds at the concentration of 1-200 μM in prewarmed HBSS buffer (250 μL). […]; Agilent Technologies, Santa Clara, CA). The concentrations of each compound in cell lysates were calculated from the standard curve that was prepared by spiking known amounts of compounds to ACN including the selected internal standard and then normalized with protein concentration. The protein concentrations on each plate were determined as a mean of three samples by Bio-Rad Protein Assay, based on the Bradford dye-binding method, using bovine serum albumin (BSA) as a standard protein and measuring the absorbance (595 nm) by a multiplate reader (EnVision, PerkinElmer, Inc., Waltham, MA, USA).
(§2) All the cellular studies were carried out as three biological replicates from the same cell passage. The function of LAT1 was followed between the used cell passages (7-16) with a LAT1 probe substrate, [^14C]-L-leucine, and noticed to be unaltered. All statistical analyses, including Michaelis-Menten, Eadie-Hofstee, and Hanes-Woolf analyses, were performed using GraphPad Prism v. 5.03 software (GraphPad Software, San Diego, CA, USA). Statistical differences between groups were tested using one-way ANOVA, followed by Tukey's multiple comparison test, and presented as the mean ± SD, with significant differences denoted by asterisks (^∗P < 0.05, ^∗∗P < 0.01, and ^∗∗∗P < 0.001).

[2] = system: OATP/OAT; test: Transporter-mediated cellular uptake into primary astrocytes, secondary mechanism (Eadie-Hofstee); type: in vitro ADME, mouse; details: Eadie-Hofstee analysis, mean ± SD, n = 3
Experimental: as §1, §2

[3] = target: T2, purified human BACE1 (Homo sapiens, UniProt P56817); test: BACE1 FRET inhibition assay (SensoLyte 520); type: biochemical; details: 1 and 10 μM; 30 min
T2 construct: purchased AnaSpec, Inc., Fremont, CA, USA SensoLyte 520 BACE1 Assay kit (catalogue number not given)
From the text: A fluorometric assay was used to screen the inhibitory effect of the studied compounds on purified human BACE1 using a fluorescence resonance energy transfer (FRET) peptide technique (SensoLyte© 520 BACE1 Assay kit, AnaSpec, Inc., Fremont, CA, USA) according to the manufacturer's protocol. […] The sequence of the FRET peptide has been derived from the β-secretase cleavage site of β-amyloid precursor protein (APP) with Swedish mutation, which enhances β-secretase to process APP resulting in an early onset of AD. Thus, active β-secretase cleaved FRET substrate into two separate fragments resulting in the release of HiLyte™ Fluor 488 fluorescence that was measured by the EnVision plate reader (EnVision, PerkinElmer, Inc., Waltham, MA, USA) at λex 490 nm and λem 520 nm. […] The results were reported as percentages (%), with control sample representing 100% β-secretase activity.

[4] = target: T3, acetylcholinesterase (AChE) (Mus musculus, UniProt P21836); test: biochemical; type: biochemical; details: for Vmax of AChE activity in the presence of derivative (Hanes-Woolf plot): 16-66 μM derivative, Crtl Vmax = 2.21
T3 construct: mouse brain S9 fraction was prepared by homogenizing freshly collected mouse brain; from tissue; host or cells: mouse brain S9 fraction (9 000 x g supernatant)
T3 sequence (P21836 32-614): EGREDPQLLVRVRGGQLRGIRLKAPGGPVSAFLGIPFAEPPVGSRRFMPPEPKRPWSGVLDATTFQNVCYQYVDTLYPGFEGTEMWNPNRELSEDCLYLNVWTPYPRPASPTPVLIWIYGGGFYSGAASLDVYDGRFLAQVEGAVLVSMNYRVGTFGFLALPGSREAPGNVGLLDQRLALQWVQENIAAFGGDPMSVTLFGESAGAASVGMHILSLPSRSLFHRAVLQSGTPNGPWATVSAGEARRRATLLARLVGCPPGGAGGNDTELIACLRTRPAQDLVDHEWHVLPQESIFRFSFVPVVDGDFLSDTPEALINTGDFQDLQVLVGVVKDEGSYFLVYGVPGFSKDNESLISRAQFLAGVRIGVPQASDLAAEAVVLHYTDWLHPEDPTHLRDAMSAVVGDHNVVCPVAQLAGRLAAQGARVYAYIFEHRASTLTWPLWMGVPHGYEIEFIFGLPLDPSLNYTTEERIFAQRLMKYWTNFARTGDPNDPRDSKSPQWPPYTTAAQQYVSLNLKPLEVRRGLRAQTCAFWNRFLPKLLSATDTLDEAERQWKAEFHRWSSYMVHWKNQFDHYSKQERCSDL
Experimental: Briefly, mouse brain S9 fraction was prepared by homogenizing freshly collected mouse brain with 50 mM Tris-buffered saline (TBS) (pH 7.4) (1 : 4, w/v), centrifuging the homogenate at 9 000 × g for 20 min at 4°C and collecting the supernatant. The supernatant was then diluted at 1 : 10 with phosphate-buffered saline (100 mM; pH 7.0) and mixed with Ellman's reagent (5,5′-dithiobis-(2-nitrobenzoic acid); DTNB; 1 mM) and studied compounds in DMSO (DMSO concentration was less than 0.5%) on a 96-well plate as 3 parallel assays.
According to the Hanes-Woolf plots, the ratio of initial substrate concentration to the reaction velocity ([S]/v) was plotted against the substrate concentration (μM).

[5] = mouse brain S9 subcellular fraction, 30 min end point, mean ± SD, n = 3

T1 sequence (Q9Z127 whole entry): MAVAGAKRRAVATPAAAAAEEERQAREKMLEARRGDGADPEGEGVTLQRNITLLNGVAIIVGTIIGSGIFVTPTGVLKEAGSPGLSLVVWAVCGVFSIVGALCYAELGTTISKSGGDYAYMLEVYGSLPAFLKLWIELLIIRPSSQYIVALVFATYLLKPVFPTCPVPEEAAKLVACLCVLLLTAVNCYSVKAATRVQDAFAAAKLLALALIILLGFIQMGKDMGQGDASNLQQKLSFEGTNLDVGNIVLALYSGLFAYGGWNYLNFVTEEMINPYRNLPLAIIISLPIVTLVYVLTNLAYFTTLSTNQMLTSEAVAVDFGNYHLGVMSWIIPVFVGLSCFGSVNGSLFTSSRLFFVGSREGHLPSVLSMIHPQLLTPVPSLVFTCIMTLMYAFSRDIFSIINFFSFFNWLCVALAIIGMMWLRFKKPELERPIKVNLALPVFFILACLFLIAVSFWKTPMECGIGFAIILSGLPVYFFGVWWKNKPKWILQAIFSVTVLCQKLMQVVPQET
T1 sequence (P10852 whole entry partner): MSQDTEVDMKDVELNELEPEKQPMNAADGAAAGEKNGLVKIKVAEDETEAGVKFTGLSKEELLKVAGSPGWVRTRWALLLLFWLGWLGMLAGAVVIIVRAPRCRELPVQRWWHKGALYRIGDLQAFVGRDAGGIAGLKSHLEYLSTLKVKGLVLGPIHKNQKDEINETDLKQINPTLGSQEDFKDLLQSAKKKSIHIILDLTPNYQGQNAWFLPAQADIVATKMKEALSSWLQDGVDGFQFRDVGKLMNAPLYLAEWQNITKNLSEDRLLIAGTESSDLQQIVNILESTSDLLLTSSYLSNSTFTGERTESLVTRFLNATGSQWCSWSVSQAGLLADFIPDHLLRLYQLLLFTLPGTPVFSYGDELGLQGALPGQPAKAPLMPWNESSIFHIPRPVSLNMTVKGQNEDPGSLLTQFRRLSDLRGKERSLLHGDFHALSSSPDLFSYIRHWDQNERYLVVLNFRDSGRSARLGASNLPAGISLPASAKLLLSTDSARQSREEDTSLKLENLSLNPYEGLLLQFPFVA
T2 sequence (P56817 46-501): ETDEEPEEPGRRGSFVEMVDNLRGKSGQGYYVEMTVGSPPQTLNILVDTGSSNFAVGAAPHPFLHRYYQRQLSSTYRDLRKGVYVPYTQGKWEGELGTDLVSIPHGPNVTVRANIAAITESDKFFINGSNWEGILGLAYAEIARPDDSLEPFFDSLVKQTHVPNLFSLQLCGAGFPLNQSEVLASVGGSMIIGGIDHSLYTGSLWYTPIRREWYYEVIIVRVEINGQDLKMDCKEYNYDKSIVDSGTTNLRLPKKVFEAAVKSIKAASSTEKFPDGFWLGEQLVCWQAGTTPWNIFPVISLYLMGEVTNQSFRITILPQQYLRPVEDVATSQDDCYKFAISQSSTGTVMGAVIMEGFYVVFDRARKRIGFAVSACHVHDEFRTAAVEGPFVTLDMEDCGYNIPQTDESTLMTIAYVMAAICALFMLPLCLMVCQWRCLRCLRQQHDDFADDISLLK

SMILES	Primary transport mechanism (LAT1) K m [1]	Primary transport mechanism (LAT1) V max [1]	Secondary transport mechanism (OATP/OAT) K m [2]	Secondary transport mechanism (OATP/OAT) V max [2]	BACE1 inhibition [3]	AChE IC50 value [4, 5]	Vmax of AChE activity in the presence of derivative (Hanes-Woolf plot) [4]	IC50 [4, 5]
COc1cc(/C=C/C(=O)O)ccc1O [FA, trans-4-hydroxy-3-methoxycinnamic acid, reference compound]	Autoactivation	Autoactivation	Autoactivation	Autoactivation	~97%	No inhibition		
COc1cc(C=CC(=O)NCc2cccc(CC(N)C(=O)O)c2)ccc1O (centres unmarked) [FA-derivative 1]	4.1 ± 2.1 µM	0.008 ± 0.002 nmol/min/mg protein	101.1 ± 19.7 µM	0.033 ± 0.402 nmol/min/mg protein	78–91%		2.12 nmol/min/mg	16.3 ± 1.52 µM
COc1cc(C=CC(=O)Nc2cccc(CC(N)C(=O)O)c2)ccc1O (centres unmarked) [FA-derivative 2]	4.2 ± 0.8 µM	0.013 ± 0.001 nmol/min/mg protein	153.8 ± 15.0 µM	0.172 ± 0.013 nmol/min/mg protein	91–97%			25.2 ± 1.43 µM
COc1cc(C=CC(=O)Oc2cccc(CC(N)C(=O)O)c2)ccc1O (centres unmarked) [FA-derivative 3]	Autoactivation	Autoactivation	Autoactivation	Autoactivation	81–91%		2.09 nmol/min/mg	66.2 ± 1.23 µM
